{"source": "patent US7060733B2", "about": "“Methods for treating pancreatitis with curcumin compounds and inhibitors of reactive oxygen species” (The Regents of the University of California, priority 2002, dated 2006)", "key": {"[1]": {"system": "rats with cerulein pancreatitis or ethanol/CCK pancreatitis", "experiment": "Serum amylase and lipase in cerulein and ethanol/CCK pancreatitis models", "assay_type": "in vivo", "conditions": "rat; for inhibition of the increase in serum amylase and lipase: curcumin 35 mg/kg/h i.v. for 6 h", "procedure": "5 μg/kg/h of Cerulein (American Peptide Co., Sunnyvale, Calif.) or vehicle control was administered to male Sprague-Dawley rats (275-350 g; Harlan, Madison, Wis.) by continuous 6-hour intravenous infusion by conventional methods known in the art. See Gukovskaya A S, et al. (1997) J. Clin. Invest. 100:1853-1862; Gukovsky I, et al. (1998) Am. J. Physiol. 275:[…]-[…]; and Zaninovic V, et al. (2000) Am. J. Physiol. 279:[…]-[…], which are herein incorporated by reference. Animals were euthanized by CO2-induced asphyxiation, and blood and the pancreas were harvested for measurements. Curcumin (Sigma Chemical, St. Louis, Mo.) was dissolved in dimethyl sulfoxide (DMSO) and administered to each animal by i.v. infusion together with cerulein at a dose of 35 mg/kg/h. Thus, during the 6-hour treatment, each animal received a total of 200 mg/kg (0.5 mmol/kg) of curcumin. Serum amylase and lipase were measured under contract using a Hitachi 707 analyzer (Antech Diagnostics, Irvine Calif.) and methods known in the art. […] Thus, curcumin inhibits […] pancreatitis. An ethanol/CCK-induced pancreatitis model as previously described was used. See Pandol S J, et al. (1999). Specifically, Sprague-Dawley rats (400-500 g; Harlan, Madison, Wis.) were given an intragastric infusion of ethanol-containing or control diet for 6 weeks followed by 6-hour infusion of a low dose (3000 pmol/kg/h) CCK-8 (Peninsula Laboratories, Belmont, Calif.). […] CCK-8 causes pancreatitis in both rats and mice by stimulating the activation of the inflammatory signals, i.e. NF-κB and AP-1, in the pancreatic acinar cell. Animals were euthanized by CO2-induced asphyxiation, and blood and the pancreas were harvested for measurements. Curcumin (Sigma Chemical, St. Louis, Mo.) was dissolved in dimethyl sulfoxide (DMSO) and administered to each animal by i.v. infusion together with CCK-8 at a dose of 35 mg/kg/h. Thus, during the 6-hour treatment, each animal received a total of 200 mg/kg (c. 0.5 mmol/kg) of curcumin. Serum amylase and lipase were measured under contract using a Hitachi 707 analyzer (Antech Diagnostics, Irvine Calif.) and methods known in the art. […] Thus, curcumin inhibits […] pancreatitis."}, "isolated acinar cells": {"system": "isolated acinar cells", "experiment": "Amylase secretion in isolated acinar cells", "assay_type": "cell-based, rat", "conditions": "100 μM curcumin, versus absence", "procedure": "The effect of curcumin on amylase secretion in isolated acinar cells was assayed. Specifically, acinar cells were isolated using a collagenase digestion technique known in the art. Animals were sacrificed with CO2. The pancreas was removed and trimmed from mesentary and fat. […]\nAmylase secretion was measured. […] Amylase activity was measured in each supernatant sample as well as the cellular sample and values for amylase release were calculated as the percentage of amylase activity in the cells at the beginning of the experiment that was release into the media during the experiment.\nThe absorbance was read with a spectrophotometer at 405 nm at 37° C. and the amylase activity in the samples was calculated by subtracting initial from the final readings. […]"}}, "note": "“Also recorded” adds a separate entry of the source.", "data": [{"smiles": "COc1cc(/C=C/C(=O)CC(=O)/C=C/c2ccc(O)c(OC)c2)ccc1O", "note": "[curcumin]", "values": [{"measurement": "inhibition of the increase in serum amylase and lipase", "setting": "[1]; cerulein pancreatitis", "value": "approximately 50%"}, {"measurement": "serum amylase versus pancreatitis without curcumin", "setting": "[1]; cerulein pancreatitis, p<0.05", "value": "significantly inhibited; also recorded: significantly lower"}, {"measurement": "serum lipase versus pancreatitis without curcumin", "setting": "[1]; cerulein pancreatitis, p<0.05", "value": "significantly inhibited; also recorded: significantly lower"}, {"measurement": "inhibition of the increase in serum amylase and lipase", "setting": "[1]; ethanol/CCK pancreatitis", "value": "approximately 50%"}, {"measurement": "serum amylase and lipase versus pancreatitis without curcumin", "setting": "[1]; ethanol/CCK pancreatitis, p<0.05", "value": "significantly inhibited; also recorded: significantly lower"}, {"measurement": "amylase release elicited by maximal (1 nM) and supramaximal (100 nM) CCK-8", "setting": "isolated acinar cells", "value": "the same"}]}]}
